Source: patent US3985766A, “Bis-imidazolyl-bisphenylmethane and salts thereof” (Bayer Aktiengesellschaft, priority 1968, dated 1976)

Tested on: Trichophyton mentagrophytes
Experiment: effectiveness in vitro against human-pathogenic fungi (fungistatic)
Type: cell-based
Conditions: Milieu d'epreuve according to Sabouraud, 28° C
Method: I. effectiveness in vitro against human-pathogenic fungi
1. Trichophyton mentagrophytes:
The test medium was Milieu d'epreuve according to Sabouraud, incubation temperature: 28° C.

Compound	MIC [µg/mL]
N#Cc1ccc(C(c2ccccc2)(n2ccnc2)n2ccnc2)cc1 [compound g), bis-imidazolyl-4-cyanophenyl-phenylmethane]	< 40
c1ccc(C(c2ccccc2)(n2ccnc2)n2ccnc2)cc1 [compound a), bis-imidazolyl-bis-phenylmethane]	< 4
Fc1ccc(C(c2ccccc2F)(n2ccnc2)n2ccnc2)cc1 [compound d), bis-imidazolyl-2,4'-difluoro-diphenylmethane]	< 4

More lines, now with the values ahead:

MIC [µg/mL]	Compound
< 4	Clc1ccc(C(c2ccccc2)(n2ccnc2)n2ccnc2)cc1 [compound b), bis-imidazolyl-4-chlorophenyl-phenylmethane]
< 4	Fc1ccc(C(c2ccccc2)(n2ccnc2)n2ccnc2)cc1 [compound c), bis-imidazolyl-4-fluorophenyl-phenylmethane]
< 4	Clc1ccccc1C(c1ccccc1)(n1ccnc1)n1ccnc1 [compound e), bis-imidazolyl-2-chlorophenyl-phenylmethane]
< 4	Clc1cccc(C(c2ccccc2)(n2ccnc2)n2ccnc2)c1 [compound f), bis-imidazolyl-3-chlorophenyl-phenylmethane]
